Measurements: PubChem BioAssay (NCI)
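Step 1: Grow cells in 96-well plates. Step 2: Expose to compound for 48 hours at 5 concentrations. Step 3: Interpolate endpoints linearly; if unreached, use highest concentration. Abbreviation: GI50, concentration required for 50% inhibition of growth. Definition used: TGI = concentration required for complete inhibition of growth.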

Experiments:
Test in all cases: NCI anticancer screen, dose series, 48 h
[1] = system: MOLT-4 leukemia
[2] = system: SR leukemia
[3] = system: ACHN renal
[4] = system: HL-60(TB) leukemia
[5] = system: SW-620 colon
[6] = system: SF-539 CNS
[7] = system: KM12 colon
[8] = system: MDA-MB-231 breast
[9] = system: EKVX NSCLC
[10] = system: UACC-257 melanoma
[11] = system: SK-MEL-5 melanoma
[12] = system: RXF 393 renal
[13] = system: HOP-92 NSCLC
[14] = system: NCI-H522 lung
[15] = system: NCI-H23 lung
[16] = system: TK-10 renal
[17] = system: SNB-19 CNS
[18] = system: NCI-H226 lung
[19] = system: OVCAR-8 ovarian
[20] = system: SN12C renal
[21] = system: OVCAR-3 ovarian
[22] = system: SK-OV-3 ovarian
[23] = system: MDA-MB-468 breast
[24] = system: CCRF-CEM leukemia
[25] = system: A549 NSCLC
[26] = system: HS 578T breast
[27] = system: UACC-62 melanoma
[28] = system: HT29 colon
[29] = system: COLO 205 colon
[30] = system: IGROV1 ovarian
[31] = system: HCT-15 colon
[32] = system: CAKI-1 renal
[33] = system: RPMI-8226 leukemia
[34] = system: MALME-3M melanoma
[35] = system: PC-3 prostate
[36] = system: MDA-MB-435
[37] = system: T-47D breast
[38] = system: SNB-75 CNS
[39] = system: UO-31 renal
[40] = system: HCC-2998 colon
[41] = system: DU-145 prostate
[42] = system: OVCAR-4 ovarian
[43] = system: OVCAR-5 ovarian
[44] = system: SF-295 CNS
[45] = system: 786-0 renal
[46] = system: BT-549 breast
[47] = system: LOX IMVI melanoma
[48] = system: MCF7 breast
[49] = system: U251 CNS
[50] = system: A498 renal
[51] = system: K-562 leukemia
[52] = system: SK-MEL-28 melanoma
[53] = system: M14 melanoma
[54] = system: SF-268 CNS
[55] = system: HOP-62 NSCLC
[56] = system: SK-MEL-2 melanoma
[57] = system: HCT-116 colon
[58] = system: NCI-H460 lung

For `O=C(O)c1ccc(-c2ccc(/C=N/NC(=O)c3[nH]c4ccc(Br)cc4c3-c3ccccc3)s2)cc1`, the GI50 [1] was 6.42 µM, the TGI [1] was 34.2 µM and the GI50 [2] was 13.7 µM. The TGI [2] was 58 µM, the GI50 [3] was 11.4 µM and the TGI [3] was 55.7 µM. The GI50 [4] was 4.31 µM, the TGI [4] was 25 µM and the GI50 [5] was 13.8 µM. It also gave a TGI [5] of 34.1 µM, a GI50 [6] of 6.79 µM and a TGI [6] of 22.2 µM. It also gave a GI50 [7] of 15.3 µM, a TGI [7] of 39.7 µM and a GI50 [8] of 20.6 µM. The TGI [8] was 47.2 µM, the GI50 [9] was 14.4 µM and the TGI [9] was 39.1 µM. It also gave a GI50 [10] of 18.7 µM, a TGI [10] of 50.2 µM and a GI50 [11] of 12 µM. It also gave a TGI [11] of 27 µM, a GI50 [12] of 13.9 µM and a TGI [12] of 57.7 µM. The GI50 [13] was 4.41 µM, the TGI [13] was 22 µM and the GI50 [14] was 15.9 µM. For the same molecule, the TGI [14] was 33.4 µM, the GI50 [15] was 21.7 µM and the TGI [15] was 54.5 µM. The GI50 [16] was 26.8 µM, the TGI [16] was > 100 µM and the GI50 [17] was 6.76 µM. For the same molecule, the TGI [17] was 20.5 µM, the GI50 [18] was 21 µM and the TGI [18] was 75.5 µM. For the same molecule, the GI50 [19] was 15.9 µM, the TGI [19] was 66.9 µM and the GI50 [20] was 9.73 µM. For the same molecule, the TGI [20] was 29.7 µM, the GI50 [21] was 13.7 µM and the TGI [21] was 35.8 µM. For the same molecule, the GI50 [22] was 20 µM, the TGI [22] was 41.2 µM and the GI50 [23] was 19.1 µM. For the same molecule, the TGI [23] was 59.7 µM, the GI50 [24] was 4.44 µM and the TGI [24] was 26.9 µM. It also gave a GI50 [25] of 13.5 µM, a TGI [25] of 44.6 µM and a GI50 [26] of 6.67 µM. For the same molecule, the TGI [26] was 38.9 µM, the GI50 [27] was 11.7 µM and the TGI [27] was 24.6 µM. It also gave a GI50 [28] of 12.7 µM, a TGI [28] of 30.4 µM and a GI50 [29] of 16.1 µM. For the same molecule, the TGI [29] was 33.9 µM, the GI50 [30] was 7.85 µM and the TGI [30] was 23.1 µM. It also gave a GI50 [31] of 5.27 µM, a TGI [31] of 20 µM and a GI50 [32] of 21.1 µM. The TGI [32] was 64.1 µM, the GI50 [33] was 6.05 µM and the TGI [33] was 51.3 µM. It also gave a GI50 [34] of 16.3 µM, a TGI [34] of 38.2 µM and a GI50 [35] of 4.79 µM. It also gave a TGI [35] of 37 µM, a GI50 [36] of 6.81 µM and a TGI [36] of 28.2 µM. For the same molecule, the GI50 [37] was 13.9 µM, the TGI [37] was 59.5 µM and the GI50 [38] was 11.2 µM. It also gave a TGI [38] of 44.8 µM, a GI50 [39] of 10.4 µM and a TGI [39] of 33.9 µM. It also gave a GI50 [40] of 11.8 µM, a TGI [40] of 27.3 µM and a GI50 [41] of 24.9 µM. The TGI [41] was > 100 µM, the GI50 [42] was 7.68 µM and the TGI [42] was 44.9 µM. It also gave a GI50 [43] of 17.1 µM, a TGI [43] of 31.5 µM and a GI50 [44] of 7.34 µM. For the same molecule, the TGI [44] was 26.2 µM, the GI50 [45] was 3.13 µM and the TGI [45] was 11 µM. For the same molecule, the GI50 [46] was 1.95 µM, the TGI [46] was 5.83 µM and the GI50 [47] was 25.7 µM. The TGI [47] was > 100 µM, the GI50 [48] was 18.1 µM and the TGI [48] was 65.1 µM. It also gave a GI50 [49] of 5.98 µM, a TGI [49] of 22 µM and a GI50 [50] of 20.7 µM. It also gave a TGI [50] of 52 µM, a GI50 [51] of 6.15 µM and a TGI [51] of 37.1 µM. The GI50 [52] was 7.17 µM, the TGI [52] was 21.6 µM and the GI50 [53] was 6.32 µM. The TGI [53] was 30.3 µM, the GI50 [54] was 13.5 µM and the TGI [54] was 46 µM. The GI50 [55] was 12.3 µM, the TGI [55] was 30.4 µM and the GI50 [56] was 15.6 µM. The TGI [56] was 35.7 µM, the GI50 [57] was 3.7 µM and the TGI [57] was 12.6 µM. The GI50 [58] was 12.3 µM and the TGI [58] was 31.5 µM.
